Data published in publication PMC7281072 (Cancers, 2020).

How the values were obtained:
[1] = test system: SKOV-3 human ovarian adenocarcinoma xenograft; parameters: species or system CB17 SCID mice; conditions: mouse, in vivo; as to MST (mean survival time): test concentration or dose not given here; as to TI% (Tumor Inhibition): test concentration or dose not given here
[2] = test system: OVCAR-5 human ovarian adenocarcinoma xenograft; parameters: species or system CB17 SCID mice; conditions: mouse, in vivo; as to MST (mean survival time): test concentration or dose not given here; as to TI% (Tumor Inhibition): test concentration or dose not given here
[3] = test system: CB17 SCID mice; conditions: both, mouse, in vivo, ip
[4] = in vivo; conditions: both, CB17 SCID, mouse, ip

With NC(Cc1ccc(N(CCCl)CCCl)cc1)C(=O)O [L-PAM, 2-amino-3-(4-(bis (2-chloroethyl)amino)phenyl) propanoic acid, reference compound] the “Median Overall Survival (OS)” value [1] was 49 days, the “Progression Free Survival (PFS)” value [1] was 0 days and the “Response Rate (RR)” value [1] was 0%. The “antitumor activity (in words)” value [1] was “no significant antitumor activity”, the “Cures (mice alive for 120 days after tumor inoculation)” value ([1]; ip) was 0/5 and the “MST (mean survival time)” value ([1]; ip) was 48.5 ± 2.3 days. The “T/C% (mean survival time of treated versus saline controls)” value ([1]; ip) was 119.7%, the “TI% (Tumor Inhibition)” value ([1]; ip) was 10.5% and the “Median Overall Survival (OS)” value [2] was 60 days. The “Progression Free Survival (PFS)” value [2] was 0 days, the “Response Rate (RR)” value [2] was 0% and the “antitumor activity (in words)” value [2] was “no significant antitumor activity”. The “Cures (mice alive for 120 days after tumor inoculation)” value ([2]; ip) was 0/5, the “MST (mean survival time)” value ([2]; ip) was 61.0 ± 4.3 days and the “T/C% (mean survival time of treated versus saline controls)” value ([2]; ip) was 120.8%. The “TI% (Tumor Inhibition)” value ([2]; ip) was 24.5%, the LD10 [3] was 14 mg/kg and the LD50 [4] was 20.8 mg/kg.
